For the experiment, the system named is SU-DHL-4 cell line. As to the kind of experiment: SU-DHL-4 cell proliferation assay (Cell Titer-Glo viability). In kind it is cell-based. Particulars: Homo sapiens; cell viability IC50 activity level, DLBCL cell line SU-DHL-4, 120 hours post-treatment; read-out: SU-DHL-4 Act. In outline: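 Viability read by ATP luminescence (Cell Titer-Glo) at the start and after 120 h of growth at 37°C in 5% CO2. DLBCL cells were seeded at 500 per well with compound across 0.5 nM–10 μM in 20 points, 0.1% DMSO. A four-parameter sigmoidal fit gave IC50 as 50% of DMSO control.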
A general note: In ATP-based viability assays light output follows the ATP content of the culture.
In the case of `Cc1cc(CNc2cccc3c2C(=O)N(C2CCC(=O)NC2=O)C3=O)ccc1CN1CC(c2cccc(C#N)c2)C1` (stereo not drawn) [Cpd 52, 3-(1-(4-((2-(2,6-dioxopiperidin-3-yl)-1,3-dioxoisoindolin-4-ylamino)methyl)-2-mtehylbenzyl)azetidin-3-yl)benzonitrile], the IC50 is less than 0.2 µM.
Turning to `Cc1cc(C#N)ccc1N1CCN(Cc2ccc(CNc3cccc4c3C(=O)N(C3CCC(=O)NC3=O)C4=O)cc2)[C@H](C)C1` (stereo partly drawn) [Cpd 67, 4-((3R)-4-(4-((2-(2,6-dioxopiperidin-3-yl)-1,3-dioxoisoindolin-4-ylamino)methyl)benzyl)-3-methylpiperazin-1-yl)-3-methylbenzonitrile], the IC50 was less than 0.2 µM.
For the compound `O=C1CCC(N2C(=O)c3cccc(NCc4ccc(CN5CCC6(CC5)CC6)cc4)c3C2=O)C(=O)N1` (stereo not drawn) [Cpd 21, 4-(4-(6-azaspiro[2.5]octan-6-ylmethyl)benzylamino)-2-(2,6-dioxopiperidin-3-yl)isoindoline-1,3-dione], the IC50 was 0.501 to 0.75 µM.
As for `C[C@@H]1COC[C@H](C)N1C1CN(Cc2ccc(CNc3cccc4c3C(=O)N(C3CCC(=O)NC3=O)C4=O)c(F)c2)C1` (stereo partly drawn) [Cpd 249, 4-(4-((3-((3S,5R)-3,5-dimethylmorpholino)azetidin-1-yl)methyl)-2-fluorobenzylamino)-2-(2,6-dioxopiperidin-3-yl)isoindoline-1,3-dione], the figure is less than 0.2 µM; as for `O=C1CCC(N2C(=O)c3cccc(NCc4ccc(CN5CCC(C(F)(F)F)CC5)cc4)c3C2=O)C(=O)N1` (stereo not drawn) [Cpd 26, 2-(2,6-dioxopiperidin-3-yl)-4-(4-((4-(trifluoromethyl)piperidin-1-yl)methyl)benzylamino)isoindoline-1,3-dione], 0.2 to 0.5 µM; as for `Cc1cc(CNc2cccc3c2C(=O)N(C2CCC(=O)NC2=O)C3=O)ccc1CN1CCC(OC(C)C)CC1` (stereo not drawn) [Cpd 78, 2-(2,6-dioxopiperidin-3-yl)-4-(4-((4-isopropoxypiperidin-1-yl)methyl)-3-methylbenzylamino)isoindoline-1,3-dione], less than 0.2 µM.
The value for `NC(=O)c1cccc(N2CCN(Cc3ccc(CNc4cccc5c4C(=O)N(C4CCC(=O)NC4=O)C5=O)cc3F)CC2)n1` (stereo not drawn) [Cpd 183, 6-(4-(4-((2-(2,6-dioxopiperidin-3-yl)-1,3-dioxoisoindolin-4-ylamino)methyl)-2-fluorobenzyl)piperazin-1-yl)picolinamide] was less than 0.2 µM; that for `O=C1CCC(N2C(=O)c3cccc(NCc4ccc(CN5CC6(CCCC6)C5)cc4)c3C2=O)C(=O)N1` (stereo not drawn) [Cpd 39, 4-(4-(2-azaspiro[3.4]octan-2-ylmethyl)benzylamino)-2-(2,6-dioxopiperidin-3-yl)isoindoline-1,3-dione] was less than 0.2 µM.
`O=C1CCC(N2C(=O)c3cccc(NCc4ccc(CN5CCC(c6ccccn6)CC5)cc4F)c3C2=O)C(=O)N1` (stereo not drawn) [Cpd 166]: the IC50 was less than 0.2 µM.
For `N#Cc1ccc(N2CCN(Cc3ccc(CNc4cccc5c4C(=O)N(C4CCC(=O)NC4=O)C5=O)cc3)CC2)c(F)c1` (stereo not drawn) [Cpd 28, 4-(4-(4-((2-(2,6-dioxopiperidin-3-yl)-1,3-dioxoisoindolin-4-ylamino)methyl)benzyl)piperazin-1-yl)-3-fluorobenzonitrile], the IC50 is less than 0.2 µM.
Regarding `CC1(C)COCCN1C1CN(Cc2ccc(CNc3cccc4c3C(=O)N(C3CCC(=O)NC3=O)C4=O)c(F)c2)C1` (stereo not drawn) [Cpd 237, 4-(4-((3-(3,3-dimethylmorpholino)azetidin-1-yl)methyl)-2-fluorobenzylamino)-2-(2,6-dioxopiperidin-3-yl)isoindoline-1,3-dione], the IC50 is less than 0.2 µM.
The value for `O=C1CCC(N2C(=O)c3cccc(NCc4ccc(CN5CCC(n6cccn6)CC5)cc4)c3C2=O)C(=O)N1` (stereo not drawn) [Cpd 25, 4-(4-((4-(1H-pyrazol-1-yl)piperidin-1-yl)methyl)benzylamino)-2-(2,6-dioxopiperidin-3-yl)isoindoline-1,3-dione] was 0.2 to 0.5 µM.

For the origin of these results see patent US11358952B2, “Substituted 4-aminoisoindoline-1,3-dione compounds, compositions thereof, and methods of treatment therewith” (Celgene Corporation, priority 2018, dated 2022).
